“And” between values parts separate entries of the source, which are not always exact repeats. Identical values can stand only once. Like-named read-outs stand apart in the source and are kept apart here.
Columns and labels:
HIV-1 SG3.1 [1] = conditions: ref Bártolo et al., 2021; Alves et al., 2021c; cited from earlier work
P. berghei hepatic stage [2] = test system: P. berghei hepatic stage; design: method as in Bártolo et al., 2021; Alves et al., 2021c; conditions: hepatic infection; ref Bártolo et al., 2021; Alves et al., 2021c; cited from earlier work
[3] = test system: P. falciparum strain NF54; design: method as in Bártolo et al., 2021; Alves et al., 2021c; conditions: erythrocytic infection; ref Bártolo et al., 2021; Alves et al., 2021c; cited from earlier work
HIV-2 03PTHCC19 [4] = test system: HIV-2 03PTHCC19; design: method as in Bártolo et al., 2021; conditions: ref Bártolo et al., 2021; cited from earlier work
[5] = Cellular viability assay (alamarBlue) in TZM-bl cells; assay type: cell-based; conditions: human, 50% cytotoxic concentration
Procedure: Before the antiviral activity screening, all spirocyclopentene-β-lactams were assayed for their in vitro cytotoxic activity (CC50) in TZM-bl cells (Table 4).
TZM-bl cells (AIDS Research and Reference Reagent Program, National Institutes of Health, United States) were cultured in complete growth medium consisting of Dulbecco’s Minimal Essential Medium (DMEM) supplemented with 10% fetal bovine serum (FBS), 100 U/ml of penicillin–streptomycin (Gibco/Invitrogen, United States), 1 mM of sodium pyruvate (Gibco/Invitrogen, United States), 2 mM of L-glutamine (Gibco/Invitrogen, United States), and 1 mM of non-essential amino acids (Gibco/Invitrogen, United States). Cell cultures were maintained at 37°C in 5% CO2.
The in vitro cytotoxicity of test compounds was evaluated in TZM-bl cells using alamarBlue cell viability reagent (Life Technologies, United States), according to the instructions of the manufacturer. The cells were cultured in the presence and absence of serial-fold dilutions of the test compounds. Each dilution of each compound was performed in triplicate wells. Medium controls (only growth medium), cell controls (cells without test compound), and cytotoxicity controls (a compound that kills cells) were employed in each assay.

HIV-1 SG3.1 [6] = assay: microbe, parasite or virus in culture; conditions: for IC50 / IC90: 48 h; for IC90: read-out: IC90 HIV-1; for inhibition at 25 µg/mL: read-out: MPI (%) 25 μg/mL
Description: (§1) The HIV-1 SG3.1 is a reference subtype B strain that uses the CXCR4 coreceptor. It was obtained by transfection of HEK293T cells with pSG3.1 plasmid using jetPRIME transfection reagent (Polyplus-transfection SA, Illkirch, France), according to the instructions of the manufacturer.
(§2) Briefly, TZM-bl cells were infected with 200 TCID50 of HIV-1 or HIV-2 in the presence of serial-fold dilutions of the compounds in the growth medium, supplemented with diethylaminoethyl-dextran (DEAE-dextran). After 48 h of infection, luciferase expression was quantified with Pierce Firefly Luc One-Step Glow Assay Kit (ThermoFisher Scientific, Rockford, United States), according to the instructions of the manufacturer. For each compound dilution, the assay was set up in triplicate wells. Virus controls, cell controls, and inhibitors controls (drugs with a known action against each virus) were employed.

HIV-2 03PTHCC19 [7] = assay: microbe, parasite or virus in culture; conditions: Human immunodeficiency virus 2, TZM-bl; for IC50 / IC90: 48 h; for IC50: read-out: IC50 HIV-2; for IC90: read-out: IC90 HIV-2; for inhibition at 25 µg/mL: read-out: MPI (%) 25 μg/mL
Description: as §1, §2

P. berghei hepatic stage [8] = assay: In vitro hepatic infection of Huh7 cells by luciferase-expressing P. berghei; assay type: cell-based; conditions: Plasmodium berghei; for inhibition at 1 µM: Huh-7, read-out: percentage of inhibition of hepatic infection; for IC50: Huh-7, hepatic stage, Huh7 cells, 48 h after infection
Procedure: The inhibitory activity of test compounds on in vitro hepatic infection by P. berghei was determined by comparing the parasite load in compound- and solvent-treated P. berghei-infected Huh7 cells. Infection load was assessed by measurement of luminescence intensity in Huh7 cells infected, with a firefly luciferase-expressing P. berghei line, as previously described ([Ploemen et al., 2009]; [António et al., 2017]). Briefly, Huh7 cells were seeded in 96-well plates (1.0 × 10^4 cells per well) the day before drug treatment and infection. The medium was replaced by another medium containing the appropriate concentration of each compound approximately 1 h prior to infection with sporozoites freshly obtained through disruption of salivary glands of infected female Anopheles stephensi mosquitoes. Sporozoite addition was followed by centrifugation at 1,800 g for 5 min. Parasite infection load was measured 48 h after infection by a bioluminescence assay (Biotium). Cell confluence, a surrogate measure of compound toxicity to Huh7 cells, was assessed by fluorescence measurements using the alamarBlue assay, according to the manufacturer’s instructions. […] Specifically, non-linear regression analysis was employed to fit the normalized results of the dose-response curves, and IC50 values were determined using GraphPad Prism 8.0 (GraphPad Software, La Jolla, California, United States).

[9] = test system: P. falciparum strain NF54; assay: Blood stage antiplasmodial activity, SYBR green I flow cytometry; assay type: cell-based; conditions: Plasmodium falciparum, NF54, 48 h
Procedure: Ring-stage synchronized cultures of P. falciparum strain NF54 at 2.5% hematocrit and at approximately 1% parasitemia were incubated with test compounds or dimethyl sulfoxide (DMSO, vehicle control) in 96-well plates for 48 h at 37°C in a 5% CO2 and 5% O2 atmosphere. Stock solutions of chloroquine (positive control) and compounds 9i, 12a, and 14a were prepared in DMSO. Working solutions were prepared from the stock solutions in complete malaria culture medium (CMCM), which consists of RPMI 1640 supplemented with 25 mM HEPES, 2.4 mM L-glutamine, 50 μg/ml gentamicin, 0.5% w/v Albumax, 11 mM glucose, 1.47 mM hypoxanthine, and 37.3 mM NaHCO3. For each measurement, 5 μl of the culture (approximately 800,000 cells) were stained with the DNA-specific dye SYBR green I. After 20 min of incubation in the dark, the stained sample was analyzed by flow cytometry. Approximately 100,000 events were analyzed in each flow cytometry measurement. Two independent experiments were performed, and all samples were analyzed in triplicate.

[10] = Human immunodeficiency virus 1, TZM-bl, read-out: IC50 HIV-1, TZM-bl cells, 48 h
[11] = Human immunodeficiency virus 1, TZM-bl
[12] = read-out: IC50 HIV-1, TZM-bl cells

Row | Structure (SMILES) | IC50 (HIV-1 SG3.1 [1]) | IC50 (P. berghei hepatic stage [2]) [µM] | IC50 [3] [µM] | IC50 (HIV-2 03PTHCC19 [4]) [µM] | CC50 [5] [µM] | IC50 (HIV-1 SG3.1 [6]; [10]) [µM] | IC90 (HIV-1 SG3.1 [6]; [11]) [µM] | inhibition at 25 µg/mL (HIV-1 SG3.1 [6]; [11]) [%] | IC50 (HIV-2 03PTHCC19 [7]) [µM] | IC90 (HIV-2 03PTHCC19 [7]) [µM] | inhibition at 25 µg/mL (HIV-2 03PTHCC19 [7]) [%] | inhibition at 1 µM (P. berghei hepatic stage [8]) [%] | IC50 (P. berghei hepatic stage [8]) [µM] | IC50 [9] [µM] | melting point [°C] | IC50 (HIV-1 SG3.1 [6]; [12]) [µM]
1 | CCOC(=O)C1=CCC2(C(=O)N3C(C(=O)OC(c4ccccc4)c4ccccc4)C(C)(C)SC32)C1C(=O)c1ccccc1 (centres unmarked) [Compound 5] | 0.305 µM and < 0.3 µM | 1.92 | 0.844 | – | – | – | – | – | – | – | – | – | – | – | – | –
2 | COC(=O)C1C(C(=O)OCc2ccccc2)=CCC12C(=O)N1C(C(=O)OC(c3ccccc3)c3ccccc3)C(C)(C)SC12 (centres unmarked) [BSS-722A] | 0.65 µM | < 5 | – | 0.51 | – | – | – | – | – | – | – | – | – | – | – | –
3 | COc1ccc(COC(=O)C2=CCC3(C(=O)N4C(C(=O)OC(c5ccccc5)c5ccccc5)C(C)(C)SC43)C2C(=O)c2ccccc2)cc1 (centres unmarked) [Compound 9i, (1’R,2’R)-Benzhydryl spiro[(2-benzoyl-3-(4-methoxybenzyloxycarbonyl)cyclopent-3-ene)-1’,6-penicillanate]] | – | – | – | – | 35.8 | 0.015 | 0.02 | 100 | 0.111 | 0.35 | 100 | < 50 | 0.285 ± 0.044 | 0.336 ± 0.067 | 65.3 to 67.4 | –
4 | COc1ccc(COC(=O)C2=CCC3(C(=O)N4C(C(=O)OC(c5ccccc5)c5ccccc5)C(C)(C)SC43)C2C(=O)c2ccc(Cl)cc2)cc1 (centres unmarked) [Compound 14d, (1’R,2’R)-Benzhydryl spiro[(2-(4-chlorobenzoyl)-3-(4-methoxybenzyloxycarbonyl)cyclopent-3-ene)-1’,6-penicillanate]] | – | – | – | – | 134 | < 0.02 | 0.019 | 100 | 0.065 | 0.123 | 100 | – | 2 ± 0.458 | – | 76.1 to 78.1 | 0.015
5 | COC(=O)C1=CCC2(C(=O)N3C(C(=O)OC(c4ccccc4)c4ccccc4)C(C)(C)SC32)C1C(=O)Oc1ccccc1 (centres unmarked) [Compound 4] | – | 2.29 | 1.26 | – | – | – | – | – | – | – | – | – | – | – | – | –
6 | CC1(C)SC2N(C(=O)C23CC=C(C(=O)OCC=Cc2ccccc2)C3C(=O)c2ccccc2)C1C(=O)OC(c1ccccc1)c1ccccc1 (centres unmarked) [Compound 9n, (1’R,2’R)-Benzhydryl spiro[(2-benzoyl-3-cinnamyloxycarbonylcyclopent-3-ene)-1’,6-penicillanate]] | – | – | – | – | 62.3 | 0.017 | 0.046 | 100 | 0.016 | 0.064 | 100 | – | 1.57 ± 0.191 | – | 67.8 to 69.4 | –
7 | CC1(C)SC2N(C(=O)C23CC=C(C(=O)OCc2ccccc2)C3C(=O)c2ccc(F)cc2)C1C(=O)OC(c1ccccc1)c1ccccc1 (stereo not drawn) [Compound 12a, (1′R,2′R)-benzhydryl spiro[(2-(4-fluorobenzoyl)-3-benzyloxycarbonylcyclopent-3-ene)-1′,6-penicillanate]] | – | – | – | – | 58.1 | 0.019 | 0.054 | 93 | 0.011 | 0.055 | 100 | < 50 | 0.924 ± 0.027 | 0.56 ± 0.126 | 64.5 to 66.5 | –
8 | CC1(C)SC2N(C(=O)C23CC=C(C(=O)OCc2ccccc2)C3C(=O)c2ccc(Br)cc2)C1C(=O)OC(c1ccccc1)c1ccccc1 (centres unmarked) [Compound 12c, (1’R,2’R)-Benzhydryl spiro[(2-(4-bromobenzoyl)-3-benzyloxycarbonylcyclopent-3-ene)-1’,6-penicillanate]] | – | – | – | – | 55 | 0.05 | 0.116 | 87 | 0.093 | 0.159 | 100 | – | 1 to 10 | – | 156.5 to 158.5 | –
9 | CC1(C)SC2N(C(=O)C23CC=C(C(=O)OCC=Cc2ccccc2)C3C(=O)c2ccc(F)cc2)C1C(=O)OC(c1ccccc1)c1ccccc1 (centres unmarked) [Compound 14c, (1’R,2’R)-Benzhydryl spiro[(2-(4-fluorobenzoyl)-3-cinnamyloxycarbonylcyclopent-3-ene)-1’,6-penicillanate]] | – | – | – | – | 77.6 | < 0.02 | 0.018 | 100 | 0.039 | 0.103 | 100 | – | 1 to 10 | – | 76.5 to 78.5 | 0.015
10 | COc1ccc(COC(=O)C2=CCC3(C(=O)N4C(C(=O)OC(c5ccccc5)c5ccccc5)C(C)(C)SC43)C2C(=O)c2ccc(Br)cc2)cc1 (centres unmarked) [Compound 14g, (1’R,2’R)-Benzhydryl spiro[(2-(4-bromobenzoyl)-3-(4-methoxybenzyloxycarbonyl)cyclopent-3-ene)-1’,6-penicillanate]] | – | – | – | – | 101 | 0.03 | 0.099 | 100 | 0.087 | 0.137 | 100 | – | 2.59 ± 0.219 | – | 82.6 to 84.6 | –
